The structures appear in SMILES notation. ≈ marks a conversion by molar mass, not a printed value.

Holding throughout (experiment): Bacterial growth minimal inhibitory concentration (CLSI broth microdilution)
Format in all cases: cell-based

In one assay the test system is E. coli ATCC25922. The note with it: quinolone-sensitive strain, cation-adjusted Mueller-Hinton Broth; for MIC: Escherichia coli, ATCC25922. In a few lines: (§1)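 Read-out is the MIC (mg/L) from CLSI M7-A7 broth microdilution in cation-adjusted Mueller-Hinton medium. The Klebsiella strain A-651 carries multiple resistances including to quinolones; the E. coli and Pseudomonas ATCC reference strains are quinolone-susceptible.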

A further assay relates to K. pneumoniae A-651. The conditions noted are these: multiply resistant strain (in particular quinolone-resistant), cation-adjusted Mueller-Hinton Broth; for MIC: Klebsiella pneumoniae, A651. In a few lines:
as §1

For a further assay, the system named is P. aeruginosa ATCC27853. The conditions noted are these: quinolone-sensitive strain, cation-adjusted Mueller-Hinton Broth; for MIC: Pseudomonas aeruginosa, ATCC27853. In a few lines: as §1

As for `C[C@@](CCN1Cc2cc(C#CC#CC3CN(CC(CO)CO)C3)cn2C1=O)(C(=O)NO)S(C)(=O)=O` [Example 67, (2R)—N-hydroxy-4-(6-((1-(3-hydroxy-2-(hydroxymethyl)propyl)azetidin-3-yl)buta-1,3-diyn-1-yl)-3-oxo-1H-pyrrolo[1,2-c]imidazol-2(3H)-yl)-2-methyl-2-(methylsulfonyl)butanamide], the values for the MIC with E. coli ATCC25922, against K. pneumoniae A-651 and against P. aeruginosa ATCC27853 were 2 µg/mL (≈ 3.95 µM), 2 µg/mL (≈ 3.95 µM) and 1 µg/mL (≈ 1.97 µM), respectively.
Consider `C[C@@](CCN1Cc2cc(C#CC#CC3CN(CC(F)F)C3)cn2C1=O)(C(=O)NO)S(C)(=O)=O` [Example 68, (2R)-4-(6-((1-(2,2-difluoroethyl)azetidin-3-yl)buta-1,3-diyn-1-yl)-3-oxo-1H-pyrrolo[1,2-c]imidazol-2(3H)-yl)-N-hydroxy-2-methyl-2-(methylsulfonyl)butanamide], for which the MIC – broadly, the least concentration at which growth counts as inhibited – in the assay on E. coli ATCC25922 was determined as 0.063 µg/mL (≈ 0.131 µM); in the assay on K. pneumoniae A-651 it was 0.25 µg/mL (≈ 0.518 µM); against P. aeruginosa ATCC27853, 1 µg/mL (≈ 2.07 µM).
On the same counts, the results for `C[C@@](CCN1Cc2cc(C#CC#CC3CN(C4CC(O)C4)C3)cn2C1=O)(C(=O)NO)S(C)(=O)=O` (stereo partly drawn) [Example 69, (2R)—N-hydroxy-4-(6-((1-(3-hydroxycyclobutyl)azetidin-3-yl)buta-1,3-diyn-1-yl)-3-oxo-1H-pyrrolo[1,2-c]imidazol-2(3H)-yl)-2-methyl-2-(methylsulfonyl)butanamide] are 0.25 µg/mL (≈ 0.512 µM), 0.5 µg/mL (≈ 1.02 µM) and 0.5 µg/mL (≈ 1.02 µM).
On the same counts, the results for `C[C@@](CCN1Cc2cc(C#CC#CC3CN(C4CCCCC4)C3)cn2C1=O)(C(=O)NO)S(C)(=O)=O` [Example 70, (2R)-4-(6-((1-cyclohexylazetidin-3-yl)buta-1,3-diyn-1-yl)-3-oxo-1H-pyrrolo[1,2-c]imidazol-2(3H)-yl)-N-hydroxy-2-methyl-2-(methylsulfonyl)butanamide] are 0.125 µg/mL (≈ 0.25 µM), 0.25 µg/mL (≈ 0.499 µM) and 0.5 µg/mL (≈ 0.999 µM).
The like results for `C[C@@](CCN1Cc2cc(C#CC#CC3CN(C4CCCC4)C3)cn2C1=O)(C(=O)NO)S(C)(=O)=O` [Example 73, (2R)-4-(6-((1-cyclopentylazetidin-3-yl)buta-1,3-diyn-1-yl)-3-oxo-1H-pyrrolo[1,2-c]imidazol-2(3H)-yl)-N-hydroxy-2-methyl-2-(methylsulfonyl)butanamide] were, in that order, 0.5 µg/mL (≈ 1.03 µM), 0.25 µg/mL (≈ 0.514 µM) and 1 µg/mL (≈ 2.06 µM).
With `C[C@@](CCN1Cc2cc(C#CC#CC3CN(C4CCOCC4)C3)cn2C1=O)(C(=O)NO)S(C)(=O)=O` [Example 74, (2R)—N-hydroxy-2-methyl-2-(methylsulfonyl)-4-(3-oxo-6-((1-(tetrahydro-2H-pyran-4-yl)azetidin-3-yl)buta-1,3-diyn-1-yl)-1H-pyrrolo[1,2-c]imidazol-2(3H)-yl)butanamide], the results for the MIC in the assay with E. coli ATCC25922, with K. pneumoniae A-651 and against P. aeruginosa ATCC27853 were 0.25 µg/mL (≈ 0.497 µM), 0.25 µg/mL (≈ 0.497 µM) and 1 µg/mL (≈ 1.99 µM), respectively.
On to `C[C@@](CCN1Cc2cc(C#CC#CC3CN(C4CSC4)C3)cn2C1=O)(C(=O)NO)S(C)(=O)=O` [Example 75, (2R)—N-hydroxy-2-methyl-2-(methylsulfonyl)-4-(3-oxo-6-((1-(thietan-3-yl)azetidin-3-yl)buta-1,3-diyn-1-yl)-1H-pyrrolo[1,2-c]imidazol-2(3H)-yl)butanamide], for which the values for the MIC in the assay on E. coli ATCC25922, with K. pneumoniae A-651 and in the assay on P. aeruginosa ATCC27853 were 0.063 µg/mL (≈ 0.128 µM), 0.125 µg/mL (≈ 0.255 µM) and 2 µg/mL (≈ 4.08 µM), respectively.
`CCC1(C#CC#Cc2cc3n(c2)C(=O)N(CC[C@](C)(C(=O)NO)S(C)(=O)=O)C3)CN(C)C1` [Example 79, (2R)-4-(6-((3-ethyl-1-methylazetidin-3-yl)buta-1,3-diyn-1-yl)-3-oxo-1H-pyrrolo[1,2-c]imidazol-2(3H)-yl)-N-hydroxy-2-methyl-2-(methylsulfonyl)butanamide]: the MIC came to 2 µg/mL (≈ 4.34 µM) against E. coli ATCC25922, 2 µg/mL (≈ 4.34 µM) in the assay on K. pneumoniae A-651 and 4 µg/mL (≈ 8.69 µM) in the assay on P. aeruginosa ATCC27853.
Take `[2H]C([2H])S(=O)(=O)[C@](C)(CCN1Cc2cc(C#CC#CC3CN(C)C3)cn2C1=O)C(=O)NO` [Example 80, (2R)—N-hydroxy-2-methyl-2-((methyl-d2)sulfonyl)-4-(6-((1-methylazetidin-3-yl)buta-1,3-diyn-1-yl)-3-oxo-1H-pyrrolo[1,2-c]imidazol-2(3H)-yl)butanamide]: the MIC against E. coli ATCC25922, against K. pneumoniae A-651 and with P. aeruginosa ATCC27853 was 0.5 µg/mL (≈ 1.15 µM) throughout.
On to `[2H]C([2H])([2H])S(=O)(=O)[C@](C)(CCN1Cc2cc(C#CC#CC3CN(CCO)C3)cn2C1=O)C(=O)NO` [Example 81, (2R)—N-hydroxy-4-(6-((1-(2-hydroxyethyl)azetidin-3-yl)buta-1,3-diyn-1-yl)-3-oxo-1H-pyrrolo[1,2-c]imidazol-2(3H)-yl)-2-methyl-2-((methyl-d3)sulfonyl)butanamide], for which the values for the MIC against E. coli ATCC25922, in the assay with K. pneumoniae A-651 and in the assay on P. aeruginosa ATCC27853 were 1 µg/mL (≈ 2.15 µM), 2 µg/mL (≈ 4.3 µM) and 1 µg/mL (≈ 2.15 µM), respectively.
For the molecule `CN1CC(C#Cc2ccc(-c3cc4n(c3)C(=O)N(CC[C@](C)(C(=O)NO)S(C)(=O)=O)C4)c(F)c2)C1` [Example 84, (2R)-4-(6-(2-fluoro-4-((1-methylazetidin-3-yl)ethynyl)phenyl)-3-oxo-1H-pyrrolo[1,2-c]imidazol-2(3H)-yl)-N-hydroxy-2-methyl-2-(methylsulfonyl)butanamide], the figures for the MIC with E. coli ATCC25922, against K. pneumoniae A-651 and against P. aeruginosa ATCC27853 were 0.5 µg/mL (≈ 0.995 µM), 1 µg/mL (≈ 1.99 µM) and 2 µg/mL (≈ 3.98 µM), respectively.
On the same counts, the results for `CN1CC(C#Cc2ccc(-c3cc4n(c3)C(=O)N(CC[C@](C)(C(=O)NO)S(C)(=O)=O)C4)cc2)C1` [Example 85, (2R)—N-hydroxy-2-methyl-4-(6-(4-((1-methylazetidin-3-yl)ethynyl)phenyl)-3-oxo-1H-pyrrolo[1,2-c]imidazol-2(3H)-yl)-2-(methylsulfonyl)butanamide] are 0.5 µg/mL (≈ 1.03 µM), 1 µg/mL (≈ 2.06 µM) and 1 µg/mL (≈ 2.06 µM).
With `CN1CCC(C#Cc2ccc(-c3cc4n(c3)C(=O)N(CC[C@](C)(C(=O)NO)S(C)(=O)=O)C4)c(F)c2)CC1` [Example 87, (2R)-4-(6-(2-fluoro-4-((1-methylpiperidin-4-yl)ethynyl)phenyl)-3-oxo-1H-pyrrolo[1,2-c]imidazol-2(3H)-yl)-N-hydroxy-2-methyl-2-(methylsulfonyl)butanamide], the MIC is 4 µg/mL (≈ 7.54 µM) against E. coli ATCC25922, > 8 µg/mL against K. pneumoniae A-651 and 8 µg/mL (≈ 15.1 µM) with P. aeruginosa ATCC27853.
On the same counts, the results for `C[C@@](CCN1Cc2cc(-c3ccc(C#CC4CN(CCO)C4)cc3F)cn2C1=O)(C(=O)NO)S(C)(=O)=O` [Example 88, (2R)-4-(6-(2-fluoro-4-((1-(2-hydroxyethyl)azetidin-3-yl)ethynyl)phenyl)-3-oxo-1H-pyrrolo[1,2-c]imidazol-2(3H)-yl)-N-hydroxy-2-methyl-2-(methylsulfonyl)butanamide] are 0.5 µg/mL (≈ 0.939 µM), 2 µg/mL (≈ 3.76 µM) and 2 µg/mL (≈ 3.76 µM).
The like results for `C[C@@](CCN1Cc2cc(C#CC#CC3CCN(C4COC4)C3)cn2C1=O)(C(=O)NO)S(C)(=O)=O` (stereo partly drawn) [Example 89, (2R)—N-hydroxy-2-methyl-2-(methylsulfonyl)-4-(6-((1-(oxetan-3-yl)pyrrolidin-3-yl)buta-1,3-diyn-1-yl)-3-oxo-1H-pyrrolo[1,2-c]imidazol-2(3H)-yl)butanamide] were, in that order, 1 µg/mL (≈ 2.05 µM), 1 µg/mL (≈ 2.05 µM) and 2 µg/mL (≈ 4.09 µM).
Take `C[C@@](CCN1Cc2cc(C#CC#CC3CN(C4CC(O)C4)C3)cn2C1=O)(C(=O)NO)S(C)(=O)=O` (stereo partly drawn) [Example 90, (2R)—N-hydroxy-4-(6-((1-((1r,3r)-3-hydroxycyclobutyl)azetidin-3-yl)buta-1,3-diyn-1-yl)-3-oxo-1H-pyrrolo[1,2-c]imidazol-2(3H)-yl)-2-methyl-2-(methylsulfonyl)butanamide]: the “MIC for E. coli ATCC25922” value in the assay with E. coli ATCC25922 turned out to be 0.5 µg/mL. In addition, the “MIC for K. Pneumoniae A-651” value in the assay with K. pneumoniae A-651 was determined as 0.5 µg/mL. Also, the “MIC for P. aeruginosa ATCC27853” value in the assay on P. aeruginosa ATCC27853 is 1 µg/mL.
With `C[C@@](CCN1Cc2cc(C#CC#CC3CN([C@H]4C[C@@H](O)C4)C3)cn2C1=O)(C(=O)NO)S(C)(=O)=O` [Example 91, (2R)—N-hydroxy-4-(6-((1-((1s,3s)-3-hydroxycyclobutyl)azetidin-3-yl)buta-1,3-diyn-1-yl)-3-oxo-1H-pyrrolo[1,2-c]imidazol-2(3H)-yl)-2-methyl-2-(methylsulfonyl)butanamide], in the assay on E. coli ATCC25922, the “MIC for E. coli ATCC25922” value came to 0.5 µg/mL. Moreover, the “MIC for K. Pneumoniae A-651” value in the assay on K. pneumoniae A-651 came out at 0.5 µg/mL. In addition, the “MIC for P. aeruginosa ATCC27853” value against P. aeruginosa ATCC27853 is 1 µg/mL.
Take `C[C@H]1[C@H](C#CC#Cc2cc3n(c2)C(=O)N(CC[C@](C)(C(=O)NO)S(C)(=O)=O)C3)CN1C` [Example 92, (2R)-4-(6-(((2S,3R)-1,2-dimethylazetidin-3-yl)buta-1,3-diyn-1-yl)-3-oxo-1H-pyrrolo[1,2-c]imidazol-2(3H)-yl)-N-hydroxy-2-methyl-2-(methylsulfonyl)butanamide]: the MIC against E. coli ATCC25922, against K. pneumoniae A-651 and in the assay on P. aeruginosa ATCC27853 was 0.25 µg/mL (≈ 0.56 µM) each time.
Take `C[C@@H]1[C@@H](C#CC#Cc2cc3n(c2)C(=O)N(CC[C@](C)(C(=O)NO)S(C)(=O)=O)C3)CN1C` [Example 93, (2R)-4-(6-(((2R,3S)-1,2-dimethylazetidin-3-yl)buta-1,3-diyn-1-yl)-3-oxo-1H-pyrrolo[1,2-c]imidazol-2(3H)-yl)-N-hydroxy-2-methyl-2-(methylsulfonyl)butanamide]: the MIC came to 0.25 µg/mL (≈ 0.56 µM) in the assay with E. coli ATCC25922, 0.5 µg/mL (≈ 1.12 µM) in the assay with K. pneumoniae A-651 and 0.25 µg/mL (≈ 0.56 µM) with P. aeruginosa ATCC27853.
For the molecule `CN1C[C@@H](C#CC#Cc2cc3n(c2)C(=O)N(CC[C@](C)(C(=O)NO)S(C)(=O)=O)C3)[C@@H]1CO` [Example 95, (2R)—N-hydroxy-4-(6-(((2R,3R)-2-(hydroxymethyl)-1-methylazetidin-3-yl)buta-1,3-diyn-1-yl)-3-oxo-1H-pyrrolo[1,2-c]imidazol-2(3H)-yl)-2-methyl-2-(methylsulfonyl)butanamide], the MIC in the assay with E. coli ATCC25922 is 1 µg/mL (≈ 2.16 µM); in the assay with K. pneumoniae A-651, 1 µg/mL (≈ 2.16 µM); with P. aeruginosa ATCC27853, 0.5 µg/mL (≈ 1.08 µM).
